The text below walks through data of ChEMBL document CHEMBL5233249, “Recent advancements in the development of heterocyclic anti-inflammatory agents” (Eur J Med Chem, 2020).

pIC50: −log10 of the molar value.

In test [1] the test system is Rattus norvegicus. The test can be described thus: Anti-inflammatory activity against formalin-induced foot paw edema in PO dosed rat at 10 mg/kg assessed as inhibition of edema measured after 4 hr relative to control. In kind it is functional.
Test [2] deals with Rattus norvegicus. In words: Anti-inflammatory activity against Carrageenan-induced paw edema in PO dosed Wistar albino rat assessed as fold increase in inhibition of […] measured after 1 hr relative to celecoxib. In kind it is functional. (In the carrageenan paw model, swelling and tenderness develop within hours.)
The test system of test [3] is RAW264.7. The test can be described thus: Anti-inflammatory activity in mouse RAW264.7 cells assessed as inhibition of LPS-induced reduction in cytokine levels relative to control. Details: scale not given: the % may be the effect or the level left. In kind it is functional.
For test [4], the system named is RAW264.7. The test can be described thus: Anti-inflammatory activity in mouse RAW264.7 cells assessed as inhibition of LPS-induced TNFalpha production relative to control. In kind it is functional. Details: scale not given: the % may be the effect or the level left.
The subject of test [5] is RAW264.7. The test can be described thus: Anti-inflammatory activity in mouse RAW264.7 cells assessed as inhibition of LPS-induced IL-6 production preincubated for 1 hr followed by LPS addition and measured after 24 hrs by EIA relative to control. The class given is functional. The arrangement: scale not given: the % may be the effect or the level left.
The target of test [6] is T1, Prostaglandin G/H synthase 1 (Ovis aries, UniProt P05979).
T1 sequence (P05979 whole entry): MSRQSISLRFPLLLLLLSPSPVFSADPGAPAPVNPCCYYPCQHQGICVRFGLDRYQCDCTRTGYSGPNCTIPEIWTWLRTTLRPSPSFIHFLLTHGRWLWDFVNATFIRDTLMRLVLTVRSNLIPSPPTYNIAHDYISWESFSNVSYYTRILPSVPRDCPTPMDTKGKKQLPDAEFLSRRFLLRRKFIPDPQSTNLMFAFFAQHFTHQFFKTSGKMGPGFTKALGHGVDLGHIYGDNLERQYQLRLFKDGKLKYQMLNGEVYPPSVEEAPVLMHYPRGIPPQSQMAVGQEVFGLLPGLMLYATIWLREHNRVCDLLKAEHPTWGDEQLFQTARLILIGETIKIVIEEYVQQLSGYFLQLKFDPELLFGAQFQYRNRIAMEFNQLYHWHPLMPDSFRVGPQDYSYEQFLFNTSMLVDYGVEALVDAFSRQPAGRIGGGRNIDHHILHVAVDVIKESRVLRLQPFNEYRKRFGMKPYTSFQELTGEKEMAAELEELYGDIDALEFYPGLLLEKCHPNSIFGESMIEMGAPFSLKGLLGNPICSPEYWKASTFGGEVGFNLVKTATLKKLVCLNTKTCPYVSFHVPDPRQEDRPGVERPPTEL
In words: Inhibition of ovine COX-1 by EIA method.

Test [7] concerns the target T2, Polyunsaturated fatty acid lipoxygenase ALOX15 (Homo sapiens, UniProt P16050).
T2 sequence (P16050 whole entry): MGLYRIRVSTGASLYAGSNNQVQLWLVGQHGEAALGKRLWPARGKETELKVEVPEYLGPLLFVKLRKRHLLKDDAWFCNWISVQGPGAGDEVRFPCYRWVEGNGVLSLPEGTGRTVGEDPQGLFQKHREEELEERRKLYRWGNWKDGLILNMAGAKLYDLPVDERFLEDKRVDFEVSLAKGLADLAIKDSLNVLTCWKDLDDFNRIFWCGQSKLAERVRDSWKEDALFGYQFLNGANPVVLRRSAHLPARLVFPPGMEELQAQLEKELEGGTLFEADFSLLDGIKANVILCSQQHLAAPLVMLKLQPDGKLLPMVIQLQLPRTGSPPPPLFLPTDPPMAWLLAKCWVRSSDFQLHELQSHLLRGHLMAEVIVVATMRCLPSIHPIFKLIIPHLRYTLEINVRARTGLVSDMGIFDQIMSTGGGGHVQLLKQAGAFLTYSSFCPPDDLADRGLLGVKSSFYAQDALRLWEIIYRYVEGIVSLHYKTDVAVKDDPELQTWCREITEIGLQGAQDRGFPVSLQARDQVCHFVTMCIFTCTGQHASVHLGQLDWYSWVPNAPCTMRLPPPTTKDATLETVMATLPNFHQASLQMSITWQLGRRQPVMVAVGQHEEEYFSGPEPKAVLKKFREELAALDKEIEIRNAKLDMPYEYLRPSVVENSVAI
In words: Inhibition of 15-LOX (unknown origin).

Test [8] concerns Rattus norvegicus. In words: Anti-inflammatory activity in Carageenan-induced paw edema Wistar rat model assessed as reduction in paw edema volume relative to control. The class given is functional. The arrangement: scale not given: the % may be the effect or the level left.
The target in test [9] is T3, Polyunsaturated fatty acid 5-lipoxygenase (Homo sapiens, UniProt P09917).
T3 sequence (P09917 whole entry): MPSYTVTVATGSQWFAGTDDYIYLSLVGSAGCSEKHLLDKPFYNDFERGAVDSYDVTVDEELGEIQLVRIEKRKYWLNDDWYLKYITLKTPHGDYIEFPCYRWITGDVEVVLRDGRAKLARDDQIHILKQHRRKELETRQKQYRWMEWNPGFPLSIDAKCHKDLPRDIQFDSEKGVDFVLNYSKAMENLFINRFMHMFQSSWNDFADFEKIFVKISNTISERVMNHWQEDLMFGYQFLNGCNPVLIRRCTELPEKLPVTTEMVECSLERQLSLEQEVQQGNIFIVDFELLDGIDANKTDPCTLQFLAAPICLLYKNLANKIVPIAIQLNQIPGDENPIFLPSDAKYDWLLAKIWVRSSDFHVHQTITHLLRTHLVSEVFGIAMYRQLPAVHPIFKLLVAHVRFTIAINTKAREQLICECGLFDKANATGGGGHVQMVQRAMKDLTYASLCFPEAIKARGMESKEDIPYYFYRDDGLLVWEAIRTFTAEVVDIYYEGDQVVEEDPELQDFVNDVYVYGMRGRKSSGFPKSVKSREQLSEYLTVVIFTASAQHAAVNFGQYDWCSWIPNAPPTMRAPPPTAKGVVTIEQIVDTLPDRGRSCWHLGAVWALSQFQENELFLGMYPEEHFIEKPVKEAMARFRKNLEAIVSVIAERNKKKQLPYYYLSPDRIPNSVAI
The test can be described thus: Inhibition of 5-LOX (unknown origin) after 5 mins by colorimetric method.

On to `Nc1cc(-c2ccc(Cl)cc2)nn1C1=NC2C(C=NN2c2ccccc2)C(=O)N1c1ccccc1` (centres undefined), for which, in test [1], the inhibition in vivo at 10 mg/kg was found to be 90%. Moreover, the “fold change (FC)” value in [2] amounted to 8.

Take `O=c1[nH]c(-c2ccccn2)nc2sc3c(c12)CCCC3`: the Activity in test [3] is 70%.

For `O=c1[nH]c(CCl)nc2sc3c(c12)CCCC3`, the Activity came out at 10% in test [4] and 90% in [5].

On to `O=C1c2ccccc2C(=O)N1c1nc2cc([N+](=O)[O-])ccc2n1Cc1ccc(-c2ccccc2)cc1`, for which the pIC50 in test [6] was 5.01; in test [7] it was 5.99; in test [9] it was 6.49. Besides, the Activity in test [8] is given as 81.88%.

Usually inhibition in vivo stands for the percentage by which the read-out fell short of the control. What is called pIC50 is the IC50 on a negative log10 scale, so that one unit is a factor of ten.
